Data reported in ChEMBL document CHEMBL1138702, “Determination of the free radical scavenging activity of dihydropyran-2,4-diones” (Bioorg Med Chem Lett, 2004).

Tests used:
[1] = Antioxidant ability determined by the parameter antiradical power that is related to the factor EC50
[2] = Concentration required to decrease the initial concentration of 2,2-diphenyl-1-picrylhydrazyl (DPPH) by 50% after 60 min

**Q.** With `O=C1CC(=O)OC(c2ccccc2)C1` (stereo not drawn) as the compound, how does the ARP [1] read?
**A.** Its ARP is 0.71 m/M.

**Q.** What about the EC50 [2] of the same compound?
**A.** Its EC50 is 1.4 mM.

**Q.** With `COc1ccc(C2CC(=O)CC(=O)O2)cc1OC` (stereo not drawn) as the compound, how does the ARP [1] read?
**A.** The ARP was 0.14 m/M.

**Q.** What about the EC50 [2] of the same compound?
**A.** Its EC50 is 7.13 mM.

**Q.** What does the source list for `C/C=C/C1CC(=O)CC(=O)O1` (stereo not drawn)?
**A.** ARP [1]: 0.7 m/M; EC50 [2]: 1.44 mM

**Q.** Which ARP [1] does the source give for `COc1ccc(C2CC(=O)CC(=O)O2)cc1` (stereo not drawn) here?
**A.** The ARP was 0.13 m/M.

**Q.** What about the EC50 [2] of the same compound?
**A.** Its EC50 is 7.61 mM.
